According to publication PMC5384759 (ACS Chemical Neuroscience, 2016):
Read-outs that look alike come from different tables or passages of the source. Values belong to the molecule of their own block, whether it stands above or below them.

How the values were obtained:
[1] = assay type: in vivo, CD-1 mice; details: for half-life / AUC: female, CD-1, mouse, ip; for AUC: area under the concentration-time curve
[2] = assay type: in vivo, CD-1 mice
[3] = CIT metabolism in placental microsomal preparations; assay type: in vitro ADME, mice; details: E14 and E18, 500 ng/mL CIT, 2 h
[4] = CIT metabolism in fetal liver microsomal preparations; assay type: in vitro ADME, mice; details: 2 h incubation
[5] = Ex vivo transplacental transfer of CIT and DCIT; assay type: in vitro ADME, mice
SERT = details: read-out: inhibitory constant (Ki) of SERT-mediated 5-HT uptake; cited from earlier work
[6] = cited from earlier work
[7] = patients, racemic CIT; cited from earlier work
[8] = nonpregnant mice, fixed dose 0.6 mg CIT ip, serum
[9] = pregnant mice GD14, weight-adjusted dose 20 mg/kg CIT ip, maternal serum
[10] = pregnant mice GD18, weight-adjusted dose 20 mg/kg CIT ip, maternal serum
[11] = pregnant mice GD18FD, fixed dose 0.6 mg CIT ip, maternal serum

increase in AUC in the GD18 group over the GD18FD dams ([1]; 20 mg/kg vs fixed 0.6 mg CIT ip, dose increased by 100%): 141%
half-life ([1]; maternal serum, 0.6 mg): 0.93 ± 0.06 h
AUC ([1]; maternal serum, 0.6 mg, pregnant mice GD18FD, fixed dose 0.6 mg CIT ip): 927 ± 28 ng·h/mL
half-life ([1]; maternal serum, 20 mg/kg): 1.08 ± 0.07 h
half-life ([1]; serum, 0.6 mg): 1.06 ± 0.04 h
AUC ([1]; serum, 0.6 mg, nonpregnant mice, fixed dose 0.6 mg CIT ip): 1230 ± 39 ng·h/mL
half-life ([1]; serum, 20 mg/kg): 1.05 ± 0.03 h
reduction in the AUC of serum CIT in GD18FD dams compared to nonpregnant mice ([1]; fixed dose 0.6 mg CIT ip): 25%
CIT absorption phase ([1]; nonpregnant mice, fixed dose 0.6 mg CIT ip): 1.67
C0, peak concentration [1, 8]: 2050 ± 36 ng/mL
CL, clearance [1, 8]: 486 ± 9 mL·h
VD, volume of distribution [1, 8]: 29.3 ± 2.3 mL
AUCdn, dose-normalized AUC [1, 9]: 1.45 ± 0.10 (ng × h/mL)μg
C0, peak concentration [1, 9]: 2278 ± 31 ng/mL
CL, clearance [1, 9]: 689 ± 15 mL·h
VD, volume of distribution [1, 9]: 41.7 ± 2.5 mL
AUCdn, dose-normalized AUC [1, 10]: 1.86 ± 0.20 (ng × h/mL)μg
C0, peak concentration [1, 10]: 2353 ± 33 ng/mL
VD, volume of distribution [1, 10]: 50.9 ± 2.0 mL
CIT absorption phase ([1]; pregnant mice GD18FD, fixed dose 0.6 mg CIT ip): 1.76
AUCdn, dose-normalized AUC [1, 11]: 1.48 ± 0.21 (ng × h/mL)μg
C0, peak concentration [1, 11]: 1667 ± 38 ng/mL
CL, clearance [1, 11]: 647 ± 20 mL·h
VD, volume of distribution [1, 11]: 36.0 ± 2.6 mL
increase in VD as gestation advanced from GD14 to GD18 ([1]; weight-adjusted dose 20 mg/kg CIT ip): 22%
time of peak fetal serum CIT concentration following maternal drug injection ([2]; E14 and E18 fetuses, maternal 20 mg/kg CIT ip): 15 min
DCIT generation from fetal liver microsomes ([4]; E14, 500 ng/mL CIT): no measurable DCIT generation
Structure (SMILES): CN(C)CCCC1(c2ccc(F)cc2)OCc2cc(C#N)ccc21 (racemic) [CIT, (±)-citalopram]
CIT to DCIT metabolic capacity of placental microsomes [3]: no significant CIT to DCIT metabolic capacity
DCIT generation from fetal liver microsomes ([4]; E18, 500 ng/mL CIT): significant rate of CIT to DCIT conversion

time to peak DCIT concentration in fetal serum ([2]; E14, after maternal 20 mg/kg CIT ip): 1 h
time to peak DCIT concentration in fetal serum ([2]; E18, after maternal 20 mg/kg CIT ip): 2.5 h
DCIT in fetal eluate during placental perfusion with CIT (placental metabolism) ([5]; E18 placenta perfused with 500 ng/mL CIT, 10 min intervals over 120 min): not detected
transplacental transfer efficiency of DCIT relative to CIT (fold less efficient) ([5]; ex vivo perfusion, E18 placentas): ~2 fold
Structure (SMILES): CNCCCC1(c2ccc(F)cc2)OCc2cc(C#N)ccc21 (stereo not drawn) [DCIT, desmethylcitalopram]
Ki (SERT): 14 nM
partition coefficient [6]: 0.28
mean plasma S/R enantiomer ratio [7]: 0.7
